Source: patent US20170064953A1, “HERBICIDAL COMPOSITIONS CONTAINING 4-AMINO-3-CHLORO-6-(4-CHLORO-2-FLUORO-3-METHOXYPHENYL) PYRIDINE-2-CARBOXYLIC ACID OR A DERIVATIVE THEREOF, A TRIAZOLOPYRIMIDINE SULFONAMIDE HERBICIDE OR A DERIVATIVE THEREOF, AND GLYPHOSATE OR A DERIVATIVE THEREOF” (Dow AgroSciences LLC, priority 2015, published 2017)
Values joined by “and” are separate entries in the source; they are usually repeats but may differ in a detail not shown here. Identical values can stand only once. Counter-ions that a name gives are not always drawn.

What was measured:
Test in all cases: Field trial, postemergence herbicidal activity, foliar applied, visual rating
Format in all cases: in vivo
[1] = system: Conyza canadensis (horseweed, ERICA); conditions: 1200 g ai/ha
Experimental: (§1) Treatments consisted of the methyl ester of 4-amino-3-chloro-6-(4-chloro-2-fluoro-3-methoxyphenyl)pyridine-2-carboxylic acid (Cmpd 1) and diclosulam in combination as GF-3220. […] Glyphosate dimethylammonium salt was applied as various commercial formulations containing 480 grams acid equivalent per liter (g ae/L).
(§2) Field trials were conducted under standard field conditions. Plot sizes varied from 3-4 meters (m) wide by 5-10 m long. Treatments were applied with small plot backpack sprayers, using pressurized carbon dioxide (CO2) as propellant. Pressure varied from 30-50 pounds per square inch (PSI), with spray tips typically of a Flat Fan type applying water diluent at 100-150 liters per hectare (L/ha). Boom sizes varied from 3-4 m in width. Weed sizes varied, but all treatments were applied as post-emergence treatments to weeds from 2 leaf to 2 tiller growth stages varying from 2-15 inches in height. No additional adjuvant was mixed with the treatments applied in the field.
(§3) The weed spectrum included, but was not limited to, Commelina benghalensis (hairy wandering Jew, COMBE), Echinochloa crus-galli (barnyardgrass, ECHCG), Euphorbia heterophylla (wild poinsettia, EPHHL), Conyza bonariensis (hairy fleabane, ERIBO), Conyza canadensis (horseweed, ERICA), Conyza sumatrensis (Guernsey fleabane, ERISU) and Ipomoea grandifolia (Corda-de-viola, IAQGR).
(§4) The values reported are percent (%) control visually rated. The predicted percent (%) weed control was determined using Colby's equation.

[2] = system: Conyza bonariensis (hairy fleabane, ERIBO); conditions: 960 g ai/ha
Experimental: as §1, §2, §3, §4

[3] = system: Ipomoea grandifolia (Corda-de-viola, IAQGR); conditions: 960 g ai/ha
Experimental: as §1, §2, §3, §4

[4] = system: Commelina benghalensis (hairy wandering Jew, COMBE); conditions: 35DAA, 960 g ai/ha
Experimental: as §1, §2, §3, §4

[5] = system: Euphorbia heterophylla (wild poinsettia, EPHHL); conditions: 960 g ai/ha
Experimental: as §1, §2, §3, §4

[6] = system: Echinochloa crus-galli (barnyardgrass, ECHCG); conditions: 1200 g ai/ha
Experimental: as §1, §2, §3, §4

[7] = system: Conyza sumatrensis (Guernsey fleabane, ERISU); conditions: 1200 g ai/ha
Experimental: as §1, §2, §3, §4

In the case of `O=C(O)CNCP(=O)(O)O` [Glyphosate DMA salt, N-(phosphonomethyl)glycine], the “Mean % weed control” value ([1]; 30DAA) is reported as 28.8%, the “Mean % weed control” value ([1]; 32DAA) is reported as 32.5% and the “Mean % weed control” value ([1]; 46DAA) is reported as 25.0%. For the same compound, the “Mean % weed control” value ([1]; 47DAA) was 28.8%, the “Mean % weed control” value ([1]; 62DAA) was 20.0% and the “Mean % weed control” value ([2]; 9DAA) was 11.7% and 10.0%. For the same compound, the “Mean % weed control” value ([2]; 12DAA) was 43.3%, the “Mean % weed control” value ([2]; 14DAA) was 40.0% and 36.7% and 23.3% and the “Mean % weed control” value ([2]; 15DAA) was 48.3%. The “Mean % weed control” value ([2]; 23DAA) was 31.7%, the “Mean % weed control” value ([2]; 35DAA) was 25.0% and the “Mean % weed control” value ([2]; 40DAA) was 46.7%. The “Mean % weed control” value ([2]; 54DAA) was 23.3%, the “Mean % weed control” value ([2]; 67DAA) was 20.0% and the “Mean % weed control” value ([3]; 14DAA) was 40.0%. For the same compound, the “Mean % weed control” value ([3]; 19DAA) was 43.8%, the “Mean % weed control” value ([3]; 28DAA) was 45.0% and the “Mean % weed control” value ([3]; 35DAA) was 53.8%. The “Mean % weed control” value ([3]; 42DAA) was 48.8%, the “Mean % weed control” value [4] was 62.0% and the “Mean % weed control” value ([5]; 7DAA) was 38.8%. The “Mean % weed control” value ([5]; 14DAA) was 52.5%, the “Mean % weed control” value ([5]; 28DAA) was 18.8% and the “Mean % weed control” value ([5]; 35DAA) was 7.5%. For the same compound, the “Mean % weed control” value ([6]; 18DAA) was 16.7%, the “Mean % weed control” value ([6]; 38DAA) was 16.7% and the “Mean % weed control” value ([7]; 19DAA) was 19.0%. For the same compound, the “Mean % weed control” value ([7]; 29DAA) was 17.0% and the “Mean % weed control” value ([7]; 46DAA) was 15.7%.
